The source of these data is PubChem BioAssay (NCI).

Some test systems named below: RXF 393 renal; 786-0 renal; HL-60(TB) leukemia; MOLT-4 leukemia; CCRF-CEM leukemia; SF-268 CNS; IGROV1 ovarian; NCI-H226 lung; UACC-62 melanoma; HCC-2998 colon; HOP-62 NSCLC; MCF7 breast.
What all share (assay): inhibition of tumour cell growth, NCI panel, 48 h

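Results reflect a 48-hour exposure of cells in 96-well plates to compound at five concentrations. TGI: concentration producing complete growth inhibition.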

With `CCOC(=O)C(NC(=O)c1ccccc1)(N1CCN(c2cc3c(cc2F)c(=O)c(C(=O)O)cn3C2CC2)CC1)C(F)(F)F` (configuration not stated), the TGI with RXF 393 renal was 36.5 µM; in the test with 786-0 renal it was > 100 µM; in the test with HL-60(TB) leukemia it was 36.5 µM; in the test on MOLT-4 leukemia, 32.8 µM; in the test with CCRF-CEM leukemia it was 14.6 µM; in the test on SF-268 CNS, 41.8 µM. Besides, the TGI was 92.5 µM in the test with IGROV1 ovarian; 45.2 µM with NCI-H226 lung; 47.6 µM in the test on UACC-62 melanoma; 38.6 µM in the test with HCC-2998 colon; > 100 µM in the test on HOP-62 NSCLC.
As for `CCOC(=O)CCC1(CCC(=O)OCC)CCCCCCCCC(CCC(=O)OCC)(CCC(=O)OCC)C(=O)C1=O`, the TGI with 786-0 renal, in the test with SF-268 CNS, in the test on IGROV1 ovarian, in the test on MCF7 breast, with NCI-H226 lung and with UACC-62 melanoma was > 100 µM in each case. Also, the TGI in the test on HCC-2998 colon and with HOP-62 NSCLC was > 100 µM each time.
Consider `CC(=O)O[C@]12CCCCCC1C1(O)C(O)CCCCC12` (some centres not stated), for which the TGI with RXF 393 renal, in the test with 786-0 renal, with HL-60(TB) leukemia, with MOLT-4 leukemia, in the test on CCRF-CEM leukemia and in the test with SF-268 CNS was > 100 µM each time. The TGI in the test with NCI-H226 lung, in the test on UACC-62 melanoma and in the test on HOP-62 NSCLC was > 100 µM in each case.
In the case of `O=C1/C(=C\c2cccc(Oc3ccccc3)c2)S(=O)(=O)C(c2ccccc2)N1c1cccc(Cl)c1` (configuration not stated), the TGI was > 100 µM with RXF 393 renal; > 100 µM with 786-0 renal; > 100 µM with MOLT-4 leukemia; 83.9 µM in the test with CCRF-CEM leukemia; > 100 µM in the test on SF-268 CNS; > 100 µM with IGROV1 ovarian. Also, the TGI in the test on MCF7 breast, in the test on UACC-62 melanoma, in the test with HCC-2998 colon and with HOP-62 NSCLC was > 100 µM in each case.
Regarding `Nc1c(S(=O)(=O)c2ccccc2)c2nc3ccccc3nc2n2c1nc1ccccc12`, the TGI in the test on RXF 393 renal was > 100 µM; in the test with 786-0 renal, > 50.5 µM; in the test with HL-60(TB) leukemia it was > 100 µM; in the test with MOLT-4 leukemia, > 100 µM; with CCRF-CEM leukemia, > 100 µM; in the test with SF-268 CNS it was > 72.9 µM. For the same compound, the TGI is 98.9 µM in the test with IGROV1 ovarian; > 75.1 µM in the test with NCI-H226 lung; > 100 µM with UACC-62 melanoma; > 100 µM in the test with HCC-2998 colon; > 49.6 µM in the test with HOP-62 NSCLC.
As for `COc1cc2c(cc1O)NC(=O)[C@@H]1CCCN1C2=O`, the TGI in the test with RXF 393 renal, in the test on 786-0 renal, with MOLT-4 leukemia, in the test with CCRF-CEM leukemia, in the test with SF-268 CNS and with IGROV1 ovarian was > 100 µM throughout. For the same compound, the TGI in the test on MCF7 breast, with NCI-H226 lung, with UACC-62 melanoma, in the test with HCC-2998 colon and in the test on HOP-62 NSCLC was > 100 µM in each case.
For the compound `CN1CCN(/C(N)=C(\C#N)C(=O)Nc2ccc(Cl)cc2)CC1`, the TGI in the test on 786-0 renal, with MOLT-4 leukemia, in the test with CCRF-CEM leukemia, in the test on IGROV1 ovarian, with MCF7 breast and in the test on NCI-H226 lung was > 100 µM each time. In addition, the values for the TGI with UACC-62 melanoma, in the test with HCC-2998 colon and in the test on HOP-62 NSCLC were 58.9 µM, > 100 µM and > 100 µM, respectively.
As for `Cc1n[n+](Cc2ccccc2)c2sc(N)nn12`, the TGI in the test on RXF 393 renal, in the test with 786-0 renal, in the test with MOLT-4 leukemia, in the test on CCRF-CEM leukemia, in the test with SF-268 CNS and in the test with IGROV1 ovarian was > 100 µM throughout. The TGI in the test with MCF7 breast was > 100 µM; with NCI-H226 lung, > 100 µM; in the test on UACC-62 melanoma, 38.5 µM; in the test on HOP-62 NSCLC, > 100 µM.
In the case of `CC(=O)c1c(N=[N+]=[N-])c2cccc3c2n(c1=O)CCC3`, the TGI is 45.4 µM in the test with RXF 393 renal; 33.5 µM in the test on 786-0 renal; 62.6 µM with MOLT-4 leukemia; 51.8 µM in the test on CCRF-CEM leukemia; 38.6 µM with SF-268 CNS; 42.8 µM in the test on IGROV1 ovarian. For the same compound, the TGI with MCF7 breast was 62.5 µM; in the test with NCI-H226 lung, 50.4 µM; with UACC-62 melanoma, 35.1 µM; in the test on HCC-2998 colon, 32 µM; in the test with HOP-62 NSCLC it was 42.3 µM.
As for `CCOC(=O)c1ccc(-c2ccc(Cl)cc2)[nH]1`, the TGI with 786-0 renal, in the test on HL-60(TB) leukemia, in the test with MOLT-4 leukemia, in the test on CCRF-CEM leukemia, in the test on SF-268 CNS and in the test with IGROV1 ovarian was > 10 µM in each case. Besides, the TGI in the test with NCI-H226 lung, with UACC-62 melanoma and with HCC-2998 colon was > 10 µM each time.
`O=C1CCSCCC(=O)Nc2ccccc2N1`: the TGI in the test with RXF 393 renal, with 786-0 renal, with HL-60(TB) leukemia, in the test with MOLT-4 leukemia, with CCRF-CEM leukemia and with SF-268 CNS was > 100 µM in each case. Moreover, the TGI in the test with IGROV1 ovarian, in the test with NCI-H226 lung, in the test on UACC-62 melanoma and in the test on HOP-62 NSCLC was > 100 µM in each case.
`C=C1CC[C@H]2C(=O)OC(c3ccoc3)C[C@]2(C)C/C=C\C=C/1C(=O)OC` (some centres not stated): the TGI in the test with RXF 393 renal, in the test on 786-0 renal, in the test with IGROV1 ovarian, with MCF7 breast, in the test with NCI-H226 lung and in the test on UACC-62 melanoma was > 25 µM each time. Moreover, the TGI in the test on HCC-2998 colon and with HOP-62 NSCLC was > 25 µM in each case.
As to `NC1(CCNC(=O)c2ccccc2)CCN(C(=O)c2ccccc2)CC1`, the TGI in the test on RXF 393 renal, in the test on 786-0 renal, with MOLT-4 leukemia, in the test with CCRF-CEM leukemia, in the test on SF-268 CNS and in the test on IGROV1 ovarian was > 100 µM in each case. The TGI with MCF7 breast, in the test on NCI-H226 lung and with UACC-62 melanoma was > 100 µM each time.
Consider `COc1ccc(N2C(=O)C(=O)N(c3ccc(N=Nc4ccccc4)cc3)C2=S)cc1`, for which the TGI with RXF 393 renal was 32.4 µM; in the test on 786-0 renal, 35.5 µM; in the test on HL-60(TB) leukemia, > 100 µM; in the test on MOLT-4 leukemia, > 100 µM; in the test with CCRF-CEM leukemia, > 100 µM; in the test with SF-268 CNS, 44.4 µM. The TGI is 31.3 µM in the test with IGROV1 ovarian; 48.4 µM in the test with NCI-H226 lung; 31.6 µM in the test with UACC-62 melanoma; 30.1 µM in the test on HCC-2998 colon; 34.6 µM in the test with HOP-62 NSCLC.
